Source: US8952024B2, “Herbicidal pyrimidone derivatives” (E I du Pont de Nemours and Company, priority 2009, dated 2015)

Columns and labels:
Experiment in all cases: Test B pre-/postemergence plant response
Type in all cases: in vivo
[1] = tested on: galium (catchweed bedstraw, Galium aparine); conditions: Preemergence; for Galium plant response rating: 125 g ai/ha
Outline: (§1)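 Visually scored on a 0 to 100 scale after 13 to 15 days in greenhouse versus controls. Treatments were preemergence on seeded loam/sand soil and postemergence on 1- to 4-leaf plants.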

[2] = tested on: nightshade (eastern black nightshade, Solanum ptycanthum); conditions: Preemergence; for Nightshade plant response rating: 125 g ai/ha
Outline: as §1

[3] = tested on: sunflower (common oilseed sunflower, Helianthus annuus); conditions: Preemergence; for Sunflower plant response rating: 125 g ai/ha
Outline: as §1

[4] = tested on: wild oat (Avena fatua)
Outline: as §1

[5] = tested on: goosegrass (Eleusine indica); conditions: Preemergence, 62 g ai/ha; scale 0 to 100 (0 no effect, 100 complete control)
[6] = 31 g ai/ha, scale 0 to 100 (0 no effect, 100 complete control)
[7] = 62 g ai/ha, scale 0 to 100 (0 no effect, 100 complete control)
[8] = 250 g ai/ha, Preemergence, 0 to 100 scale
[9] = Postemergence, 62 g ai/ha, scale 0 (no effect) to 100 (complete control), 13 to 15 days
[10] = Postemergence, 125 g ai/ha, visual rating after 13 to 15 days, scale 0 (no effect) to 100 (complete control)
[11] = Preemergence, 31 g ai/ha, scale 0 to 100 (0 no effect, 100 complete control)
[12] = Preemergence, 125 g ai/ha, 0 to 100 scale

Row | SMILES | Plant response rating, Galium ([1]; 250 g ai/ha, 0 to 100 scale) | Plant response rating, Galium [1, 6] | Plant response rating, Galium [1, 7] | Galium plant response rating ([1]; 0 to 100 scale) | Plant response rating, Nightshade ([2]; 250 g ai/ha, 0 to 100 scale) | Plant response rating, Nightshade [2, 6] | Plant response rating, Nightshade [2, 7] | Nightshade plant response rating ([2]; 0 to 100 scale) | Plant response rating, Sunflower ([3]; 250 g ai/ha, 0 to 100 scale) | Plant response rating, Sunflower [3, 6] | Sunflower plant response rating ([3]; 0 to 100 scale) | Plant response rating, Oat, Wild [4, 8] | Plant response rating, Oat, Wild [4, 9] | Plant response rating, Oat, Wild [4, 10] | Plant response rating, Oat, Wild [4, 11] | Oat, Wild plant response rating [4, 12] | Plant response rating, Goosegrass [5]
1 | CCCCc1ncc(C(=O)C2=C(O)CCCC2=O)c(=O)n1-c1ccccc1 [Compound 42] | 50 | 0 | 0 | 10 | 100 | 100 | 100 | 100 | 75 | 0 | 55 | 0 | 10 | 10 | 0 | 0 | 95
2 | Cc1ccc(F)cc1-n1c(-c2ccccc2)ncc(C(=O)C2=C(O)CCCC2=O)c1=O [Compound 44] | 98 | 0 | 65 | 65 | 100 | 95 | 98 | 100 | 80 | 10 | 75 | 30 | 80 | 80 | 0 | 5 | 98
3 | Cc1cccc(Cl)c1-n1c(-c2ccccc2)ncc(C(=O)C2=C(O)CCCC2=O)c1=O [Compound 46] | 70 | 0 | 0 | 0 | 98 | 95 | 95 | 98 | 60 | 0 | 0 | 0 | 5 | 20 | 0 | 0 | 95
